The text below walks through data of ChEMBL document CHEMBL1201862, “PubChem BioAssay data set” (2004).

Among the test systems are KM12; UACC-62; NCI/ADR-RES; COLO 205; MDA-N; DU-145; OVCAR-5; HT-29; HCT-116; HOP-92; OVCAR-4; OVCAR-3; HL-60; NCI-H23; TK-10; SK-OV-3; EKVX; 786-0; A549; OVCAR-8.
Holding throughout (test): NCI anticancer screen, dose series, 48 h

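Exposure lasted 48 hours, with cells grown in 96-well plates and compounds tested at five concentrations. At the GI50, growth is halved.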 Active and inactive are the calls of the source. Rule as the data show it: active = GI50 up to about 1.1 µM and inactive = higher.

As for `COc1ccc2c3c1OC1C(OC)(OC)C=C[C@@]4(Br)[C@@H](C2)N(CC2CC2)CC[C@]314` (some centres undefined), the GI50 was > 100 µM (inactive) in the test with KM12; 68.5 µM (inactive) in the test with UACC-62; > 100 µM (inactive) in the test with NCI/ADR-RES; 31.8 µM (inactive) in the test with COLO 205; 49.5 µM (inactive) with MDA-N; > 100 µM (inactive) with DU-145. Further, the GI50 in the test on OVCAR-5 is > 100 µM (inactive); in the test with HT-29, 61.9 µM (inactive); in the test on HCT-116 it was 44 µM (inactive); with HOP-92, 23.8 µM (inactive); in the test with OVCAR-4, 43.7 µM (inactive); in the test with OVCAR-3, 46.7 µM (inactive). Also, the GI50 in the test on HL-60 is > 100 µM (inactive); with NCI-H23, 71.3 µM (inactive); in the test on TK-10, > 100 µM (inactive); in the test on SK-OV-3 it was > 100 µM (inactive); with EKVX it was > 100 µM (inactive); in the test with 786-0 it was > 100 µM (inactive). In addition, the GI50 is 95.7 µM (inactive) in the test with A549 and 61.4 µM (inactive) in the test with OVCAR-8.
As for `COc1ccc2cc(C(C)C(=O)N3C(=O)OCC3(C)C)ccc2c1` (centres undefined), the GI50 in the test on UACC-62, with NCI/ADR-RES, in the test with COLO 205, in the test on MDA-N, in the test with DU-145 and with OVCAR-5 was > 100 µM (inactive) each time. Besides, the GI50 in the test on HT-29, in the test on HCT-116, in the test with HOP-92, in the test with OVCAR-4, with OVCAR-3 and with HL-60 was > 100 µM (inactive) throughout. For the same compound, the GI50 in the test with NCI-H23, with TK-10, in the test on SK-OV-3, in the test with EKVX, in the test with 786-0 and in the test with A549 was > 100 µM (inactive) in each case. Also, the GI50 with OVCAR-8 was > 100 µM (inactive).
As for `c1ccc2c(CN3CCN(Cc4c[nH]c5ccccc45)CC3)c[nH]c2c1`, the GI50 was 16.8 µM (inactive) in the test with KM12; 16.3 µM (inactive) with UACC-62; 23 µM (inactive) in the test with NCI/ADR-RES; 5.58 µM (inactive) in the test on COLO 205; 14.9 µM (inactive) in the test on MDA-N; 18.3 µM (inactive) in the test on DU-145. The GI50 in the test with OVCAR-5 was 18.7 µM (inactive); in the test on HT-29, 17.5 µM (inactive); in the test on HCT-116 it was 14.8 µM (inactive); in the test with HOP-92 it was 14.8 µM (inactive); in the test on OVCAR-4 it was 41.4 µM (inactive); in the test on OVCAR-3, 13.1 µM (inactive). Moreover, the GI50 in the test with HL-60 is 17.5 µM (inactive); in the test with NCI-H23, 19.8 µM (inactive); in the test on TK-10, 15.6 µM (inactive); in the test on SK-OV-3, 21.4 µM (inactive); in the test on EKVX, 13.3 µM (inactive); in the test on 786-0 it was 16.1 µM (inactive). In addition, in the test with OVCAR-8, the GI50 is 19 µM (inactive).
For `CC[C@]1(Cc2ccc(OC)c(OC)c2)C=[N+]([O-])O[C@H](OCc2ccccc2)[C@@H]1OC(C)=O`, the GI50 in the test on KM12 was 22.2 µM (inactive); in the test with UACC-62, 26.2 µM (inactive); in the test with NCI/ADR-RES, 33.3 µM (inactive); in the test on COLO 205, 17.1 µM (inactive); in the test with MDA-N, 36.1 µM (inactive); in the test on DU-145, 23.6 µM (inactive). The GI50 with OVCAR-5 was 59.7 µM (inactive); in the test with HT-29, 29.5 µM (inactive); in the test on HOP-92, 23.9 µM (inactive); in the test on OVCAR-4, 24.1 µM (inactive); in the test with OVCAR-3, 15.8 µM (inactive); in the test on HL-60, 16.6 µM (inactive). Further, the GI50 in the test on NCI-H23 was 34.9 µM (inactive); in the test on TK-10 it was 41.7 µM (inactive); in the test on SK-OV-3, 48.9 µM (inactive); in the test with EKVX it was 16.5 µM (inactive); with 786-0, 36.2 µM (inactive); in the test on A549, 36.2 µM (inactive). In addition, the GI50 in the test with OVCAR-8 is 30.3 µM (inactive).
As to `O=C1Nc2ccccc2S/C1=C\c1cccc(C(F)(F)F)c1`, the GI50 in the test on KM12, in the test with UACC-62, in the test on NCI/ADR-RES, in the test on COLO 205, with MDA-N and with DU-145 was > 100 µM (inactive) throughout. The GI50 in the test with OVCAR-5 was > 100 µM (inactive); in the test on HT-29, > 100 µM (inactive); with HCT-116, > 100 µM (inactive); in the test on HOP-92, 60.1 µM (inactive); in the test on OVCAR-4, > 100 µM (inactive); in the test on OVCAR-3, > 100 µM (inactive). The GI50 with HL-60 was 5.01 µM (inactive); in the test on TK-10, > 100 µM (inactive); in the test with SK-OV-3 it was > 100 µM (inactive); in the test on EKVX, > 100 µM (inactive); in the test on 786-0 it was > 100 µM (inactive); in the test with A549, > 100 µM (inactive). In the test with OVCAR-8, the GI50 was > 100 µM (inactive).
In the case of `CCOC(=O)c1csc(-c2nc(CCNC(=O)c3ccccc3)sc2Cl)n1`, the GI50 is 69.2 µM (inactive) in the test on KM12; 59.3 µM (inactive) with UACC-62; 41.1 µM (inactive) in the test with NCI/ADR-RES; 77.3 µM (inactive) in the test with COLO 205; > 100 µM (inactive) with MDA-N; > 100 µM (inactive) in the test with DU-145. Further, the GI50 with OVCAR-5 is > 100 µM (inactive); with HT-29, > 100 µM (inactive); with HCT-116, 47 µM (inactive); with HOP-92 it was 5.74 µM (inactive); with OVCAR-3, 45.8 µM (inactive); with HL-60 it was 41.5 µM (inactive). Also, the GI50 is 40.9 µM (inactive) in the test on NCI-H23; > 100 µM (inactive) in the test with TK-10; > 100 µM (inactive) in the test on SK-OV-3; > 100 µM (inactive) in the test on EKVX; > 100 µM (inactive) with 786-0; > 100 µM (inactive) in the test on A549. Also, the GI50 in the test on OVCAR-8 was 45 µM (inactive).
For `CCN(CC)CCCNc1nncc2c(C)c3[nH]c4ccccc4c3cc12`, the GI50 is 0.667 µM (active) with KM12; 0.637 µM (active) in the test with UACC-62; 89.5 µM (inactive) in the test on NCI/ADR-RES; 0.653 µM (active) with COLO 205; 1.06 µM (active) in the test with MDA-N; 0.706 µM (active) in the test with DU-145. The GI50 is 1.71 µM (inactive) with OVCAR-5; 0.258 µM (active) in the test on HT-29; 0.847 µM (active) in the test on HOP-92; 0.514 µM (active) in the test with OVCAR-4; 1.03 µM (active) in the test with OVCAR-3; 0.267 µM (active) with HL-60. Besides, the GI50 in the test on NCI-H23 was 0.743 µM (active); in the test with TK-10, 4.52 µM (inactive); with SK-OV-3, 0.989 µM (active); in the test on EKVX it was 1.37 µM (inactive); with 786-0 it was 0.667 µM (active); in the test on A549, 0.67 µM (active). In the test on OVCAR-8, the GI50 is 0.685 µM (active).
As to `CSCCCCCCCCCCOc1ccc(C=C2C(=C(C#N)C#N)c3ccccc3C2=C(C#N)C#N)cc1`, the GI50 is 19 µM (inactive) in the test on KM12; 29 µM (inactive) in the test on NCI/ADR-RES; 18.3 µM (inactive) in the test on MDA-N; 15.6 µM (inactive) with DU-145; 16.6 µM (inactive) in the test with OVCAR-5; 17.3 µM (inactive) in the test with HT-29. In addition, the GI50 in the test with HCT-116 is 16.9 µM (inactive); in the test with HOP-92, 11.7 µM (inactive); in the test on OVCAR-4 it was 18.3 µM (inactive); in the test on OVCAR-3, 16.4 µM (inactive); in the test with HL-60 it was 0.0962 µM (active); with NCI-H23 it was 22.1 µM (inactive). In addition, the GI50 with TK-10 was 19.4 µM (inactive); in the test on SK-OV-3, 17.6 µM (inactive); in the test on EKVX, 18.1 µM (inactive); in the test with 786-0, 17.5 µM (inactive); in the test on OVCAR-8 it was 17.5 µM (inactive).
Regarding `N#C/C(=C/NC(=S)NCc1ccccc1)C(N)=O`, the GI50 with KM12, in the test with UACC-62, with NCI/ADR-RES, with COLO 205, in the test on MDA-N and with DU-145 was > 100 µM (inactive) each time. Further, the GI50 in the test on OVCAR-5 is > 100 µM (inactive); in the test with HT-29, > 100 µM (inactive); in the test on HCT-116 it was > 100 µM (inactive); with HOP-92 it was > 100 µM (inactive); in the test with OVCAR-4, > 100 µM (inactive); with OVCAR-3, 0.063 µM (active). Moreover, the GI50 in the test on HL-60, in the test on NCI-H23, in the test with SK-OV-3, with EKVX, with 786-0 and in the test with A549 was > 100 µM (inactive) in each case. Also, the GI50 with OVCAR-8 was > 100 µM (inactive).
Turning to `O=C1OC2(c3ccc(O)cc3Oc3cc(O)ccc32)c2c1c(-c1ccccc1)c(-c1ccccc1)c(-c1ccccc1)c2-c1ccccc1`, the GI50 was 17.1 µM (inactive) in the test with KM12; 18.7 µM (inactive) in the test on UACC-62; 31.2 µM (inactive) in the test on NCI/ADR-RES; 19.3 µM (inactive) in the test on COLO 205; 21.8 µM (inactive) in the test on MDA-N; 17.2 µM (inactive) with DU-145. Also, the GI50 in the test on OVCAR-5 is 20.4 µM (inactive); in the test with HT-29, 18.7 µM (inactive); in the test on HCT-116, 24.4 µM (inactive); in the test with HOP-92, 20 µM (inactive); with OVCAR-4, 27.8 µM (inactive); in the test with OVCAR-3 it was 34.5 µM (inactive). Moreover, the GI50 is 14.8 µM (inactive) with HL-60; 23.7 µM (inactive) in the test on TK-10; 39 µM (inactive) with SK-OV-3; 25.8 µM (inactive) with EKVX; 27.7 µM (inactive) with 786-0; 34.5 µM (inactive) in the test on A549. Besides, the GI50 in the test with OVCAR-8 is 22.4 µM (inactive).
